# Experimental data published in PMC10862543, “Naphthalene Diimide–Tetraazacycloalkane Conjugates Are G-Quadruplex-Based HIV-1 Inhibitors with a Dual Mode of Action” (ACS Infectious Diseases, 2024).
# Counter-ions that a name gives are not always drawn.
# Key:
# HIV-1 X4 strain (NL4–3) = experiment: Time of addition (TOA) assay, X4 strain; type: cell-based
# Procedure: This assay indicates how long the addition of a compound can be postponed before it loses its antiviral activity: comparing the test compounds with reference drugs, whose mechanism is well characterized in the time frame of virus replication, it is possible to determine which viral steps are affected by the test compounds.[56]
# Virus production was monitored at 25 h post infection, i.e., at the end of a single round of HIV-1 replication, by exploiting the LTR-driven luciferase reporter system.
# 25 h post infection HIV-1 production was assessed following the LTR-luciferase signal using the britelite plus Reporter Gene Assay System. The activity of the test compounds was compared with that of untreated infected cells and reference drugs (DS stands for dextran sulfate and NEV stands for nevirapine).
# TZM-bl cells (1 × 10^4 cells/well) were seeded in 96-well plates and grown overnight to permit adherence prior to treatment and viral infection. Cells were next infected with HIV-1 NL4–3 or BaL strains (MOI 0.5 and 0.3, respectively) and incubated at 37 °C. […] Following these criteria, we used the highest possible concentrations with the lowest cytotoxicity. After 25 h, cells were washed with PBS 1× and HIV-1 production was assessed following the LTR-luciferase signal using the britelite plus Reporter Gene Assay System (PerkinElmer, Waltman, MA, USA) according to the manufacturer’s protocol.
# [1] = stability constant; cited from earlier work
# TZM-bl cells = experiment: MTT cytotoxicity assay on uninfected cells; type: cell-based; conditions: for CC50: uninfected TZM-bl
# Procedure: (§1) We used TZM-bl cells that are HeLa cells stably expressing large amounts of CD4, CXCR4, and CCR5, thus being highly susceptible to HIV-infection, with integrated luciferase and beta-galactosidase genes under the control of the HIV-1 promoter. We first tested NDI–tetraazacycloalkane conjugates’ cytotoxicity on TZM-bl cells by treating them with increasing amounts of compounds (0.097–25 μM) for 24 and 48 h.
# (§2) Cytotoxicity of tested compounds was performed in parallel to antiviral and reporter assays by MTT. […] The selectivity index (SI) is the relative effectiveness of the tested compound in inhibiting viral replication compared to inducing cell death (CC50 value/IC50 value). […]. IC50 and CC50 values were calculated by using a nonlinear regression model.
# T-tropic HIV = conditions: cited from earlier work
# HIV-1 R5 strain (BaL) = experiment: microbe, parasite or virus in culture; type: cell-based; conditions: TZM-bl; for IC50: Human immunodeficiency virus 1, BAL, R5 strain, MOI 0.3
# Procedure: (§3) We next tested the antiviral activity of the NDI–tetraazacycloalkane conjugates in TZM-bl cells. Cells were infected with HIV-1 NL4–3 or BaL, two strains with different cell tropism due to the different coreceptors that are bound by the virus to get access into the cell: HIV-1 NL4–3 exploits the CXCR4 coreceptor (X4 strain), while HIV-1 BaL exploits the CCR5 coreceptor (R5 strain). Compounds were administered at the time of infection or 2 h post infection, and the antiviral activity was evaluated 24 and 48 h post infection. Cytotoxicity was tested in parallel on uninfected cells to assess compound cytotoxicity.
# (§4) Cytotoxicity of tested compounds was performed in parallel to antiviral and reporter assays by MTT. […] The selectivity index (SI) is the relative effectiveness of the tested compound in inhibiting viral replication compared to inducing cell death (CC50 value/IC50 value). […] IC50 and CC50 values were calculated by using a nonlinear regression model.
# (§5) HIV-1 infectivity was measured using the TZM-bl reporter cell line (obtained through the NIH AIDS Reagent Program, Division of AIDS, NIAID, NIH: TZM-bl cells (catalog no. 8129) from Dr. John C. Kappes, and Dr. Xiaoyun Wu). TZM-bl is a HeLa cell line stably expressing large amounts of CD4 and CCR5, constitutively expressing CXCR4 and containing integrated copies of the luciferase and β-galactosidase genes under the control of the HIV-1 promoter. TZM-bl were grown in DMEM supplemented with 10% FBS. Cells (1 × 10^4 cells/well) were seeded in 96-well plates and grown overnight to permit adherence prior to treatment and viral infection. Cells were next infected with HIV-1 NL4–3 strain or BaL strain at a MOI of respectively 0.5 and 0.3 for 1 h at 37 °C, treated with serial dilutions of tested compounds, and incubated at 37 °C. MOI values had been optimized in previous in-house experiments in order to obtain a well detectable virus release but avoid a virus-induced cytopathic effect. Compounds were reconstituted in DMSO, and dilutions were made in cell medium to maintain the same percentage of DMSO in all dilutions. Untreated cells were treated with the same solvent. After 24 or 48 h, cells were washed with PBS 1× and HIV-1 production was assessed following the LTR-luciferase signal using the britelite plus Reporter Gene Assay System (PerkinElmer, Waltman, MA, USA) according to the manufacturer’s protocol.
# HIV-1 X4 strain (NL4-3) = experiment: microbe, parasite or virus in culture; type: cell-based; conditions: for IC50: Human immunodeficiency virus 1, NL43, TZM-bl, X4 strain, MOI 0.5
# Procedure: as §3, §4, §5
# dsDNA = experiment: FRET melting assay, dsDNA control; type: binding; conditions: dsDNA 0.25 μM, compound 0.5 μM, 100 mM KCl
# Procedure: (§6) FRET assay was performed with FAM (6-carboxyfluorescein) 5′-end- and Tamra (6-carboxytetramethylrhodamine) 3′-end-labeled oligonucleotides (Table S1). Fluorescence melting curves were determined with a LightCycler II (Roche) real-time PCR machine, using a total reaction volume of 20 μL, with 0.25 μM tagged oligonucleotide in a buffer containing 10 mM lithium cacodylate pH 7.4 with 100 mM KCl, in the presence or absence of 0.5 μM NDI–tetraazacycloalkane conjugate. After a first equilibration step at 30 °C during 2 min, a stepwise increase of 1 °C every minute for 65 cycles to reach 95 °C was performed and measurements were made after each cycle with excitation at 470 nm and detection at 530 nm. Final analysis of the data was carried out using Excel and Sigma Plot software. Oligonucleotides melting was monitored by observing emission of FAM, which was normalized between 0 and 1: Tm was defined as the temperature at which the normalized emission is 0.5. Tm values were mean of 2–3 experiments and ΔTm was calculated as the difference Tm in the presence and absence of the compound.
# Tel22 = experiment: CD melting, telomeric G4 control; type: binding; conditions: Tel22 4 μM, compound 8 μM, 100 mM KCl
# Procedure: (§7) All oligonucleotides used in this study were from Sigma-Aldrich (Milan, Italy) (Table S2). For CD analysis, oligonucleotides were diluted to a final concentration of 4 μM in lithium cacodylate buffer (10 mM, pH 7.4) and KCl 100 mM. After the annealing step (95 °C for 5 min), DNA samples were gradually cooled to room temperature and compounds added from stock at final concentration of 8 μM. […] The reported spectrum of each sample represents the average of 2 scans and is baseline-corrected for signal contributions due to the buffer. Observed ellipticities were converted to mean residue ellipticity (θ) = deg × cm^2 × dmol^–1 (mol ellip). For the determination of Tm, spectra were recorded over a temperature range of 20–90 °C, with a temperature increase of 5 °C/min. Tm values were calculated according to the van’t Hoff equation, applied for a two-state transition from a folded to unfolded state, assuming that the heat capacity of the folded and unfolded states are equal.
# LTR-III [2] = experiment: CD melting, LTR-III G4; type: binding, HIV-1; conditions: LTR-III 4 μM, compound 8 μM, 100 mM KCl
# Procedure: as §7
# LTR-III [3] = experiment: FRET melting assay, LTR-III G4; type: binding, HIV-1; conditions: LTR-III 0.25 μM, compound 0.5 μM, 100 mM KCl
# Procedure: as §6
# F21T = type: binding; conditions: F21T 0.25 μM, compound 0.5 μM, 100 mM KCl
# Procedure: as §6
# LTR-IV [4] = experiment: CD melting, LTR-IV G4; type: binding, HIV-1; conditions: LTR-IV 4 μM, compound 8 μM, 100 mM KCl
# Procedure: as §7
# [5] = MTT cytotoxicity assay on uninfected cells; type: cell-based; conditions: human, uninfected TZM-bl
# Procedure: as §1, §2
# LTR-IV [6] = experiment: FRET melting assay, LTR-IV G4; type: binding, HIV-1; conditions: LTR-IV 0.25 μM, compound 0.5 μM, 100 mM KCl
# Procedure: as §6
# [7] = administration 0 hpi, evaluation 24 hpi
# [8] = administration 2 hpi, evaluation 24 hpi
# [9] = administration 2 hpi, evaluation 48 hpi
compound,measurement,setting,value
dextran sulfate,time post infection up to which the control drug is active,HIV-1 X4 strain (NL4–3),active at the time of infection only
C1CNCCNCCNCCNC1 [[13]aneN4],log Ka for Cu^2+,[1],24.41
CN(C)CCCNc1cc2c3c(c(NCCCCCC(=O)O)cc4c3c1C(=O)N(CCCN(C)C)C4=O)C(=O)N(CCCN(C)C)C2=O [parental NDI],cytotoxicity (in words),"TZM-bl cells; TZM-bl, 24 h, Figure S11",highly cytotoxic
"c1cc(CN2CCCNCCNCCCNCC2)ccc1CN1CCCNCCNCCCNCC1 [AMD3100, 1,1′-[1,4-phenylenebis(methylene)]-bis-1,4,8,11-tetraazacyclotetradecane octahydrochloride dehydrate, reference compound]",concentration preventing replication of T-tropic HIV (in words),T-tropic HIV,low nanomolar concentrations
same,antiviral activity (in words),"HIV-1 R5 strain (BaL); BaL strain, Figure S10",inactive
same,antiviral activity (in words),"HIV-1 X4 strain (NL4-3); pNL4.3 strain, TZM-bl, Figure S10",excellent activity
Cc1ccnc2c1NC(=O)c1cccnc1N2C1CC1 [nevirapine],time post infection up to which the control drug is active,HIV-1 X4 strain (NL4–3),3 to 4 h
CN(C)CCCNc1cc2c3c(c(NCCCCCC(=O)OCC4CNCCCNCCNCCN4)cc4c3c1C(=O)N(CCCN(C)C)C4=O)C(=O)N(CCCN(C)C)C2=O (stereo not shown) [compound 5],Tm K^+ 100 mM + compound (FRET),dsDNA,65.0 ± 0.2 °C
same,ΔTm (FRET),dsDNA,0.8 °C
same,Tm K^+ 100 mM + compound (CD),Tel22,60.9 ± 0.3 °C
same,ΔTm (CD),Tel22,–5.9 °C
same,Tm K^+ 100 mM + compound (CD),LTR-III [2],78.6 ± 0.5 °C
same,ΔTm (CD),LTR-III [2],10.4 °C
same,Tm K^+ 100 mM + compound (FRET),LTR-III [3],77.7 ± 0.1 °C
same,ΔTm (FRET),LTR-III [3],12.5 °C
same,Tm K^+ 100 mM + compound (FRET),F21T,66.6 ± 0.1 °C
same,ΔTm (FRET),F21T,2.2 °C
same,Tm K^+ 100 mM + compound (CD),LTR-IV [4],71.6 ± 0.4 °C
same,ΔTm (CD),LTR-IV [4],21.2 °C
same,IC50,HIV-1 R5 strain (BaL); [7],> 25 µM
same,IC50,HIV-1 R5 strain (BaL); [8],> 25 µM
same,IC50,HIV-1 R5 strain (BaL); [9],16.6 ± 1.33 µM
same,IC50,HIV-1 X4 strain (NL4-3); [7],17.8 ± 0.94 µM
same,IC50,"HIV-1 X4 strain (NL4-3); administration 0 hpi, evaluation 48 hpi",1.86 ± 0.49 µM
same,IC50,HIV-1 X4 strain (NL4-3); [8],12.1 ± 1.02 µM
same,IC50,HIV-1 X4 strain (NL4-3); [9],1.82 ± 0.65 µM
same,CC50,"TZM-bl cells; parallel to R5, administration 0 hpi, evaluation 24 hpi",> 25 µM
same,CC50,"TZM-bl cells; parallel to R5, administration 0 hpi, evaluation 48 hpi",> 25 µM
same,CC50,"TZM-bl cells; parallel to R5, administration 2 hpi, evaluation 48 hpi",> 25 µM
same,CC50,"TZM-bl cells; parallel to X4, administration 0 hpi, evaluation 24 hpi",> 25 µM
same,CC50,"TZM-bl cells; parallel to X4, administration 2 hpi, evaluation 24 hpi",> 25 µM
same,CC50,"TZM-bl cells; parallel to X4, administration 2 hpi, evaluation 48 hpi",> 25 µM
same,CC50 at 24 h,"[5]; parallel to R5, administration 2 hpi, evaluation 24 hpi",> 25 µM
same,CC50 at 48 h,"[5]; parallel to X4, administration 0 hpi, evaluation 48 hpi",> 25 µM
same,Tm K^+ 100 mM + compound (FRET),LTR-IV [6],73.9 ± 0.6 °C
same,ΔTm (FRET),LTR-IV [6],15.2 °C
C1CNCCNCCNCCN1 [Cyclen],log Ka toward Cu^2+,[1],23.29
